Assay results taken from patent US11225505B2, “Antimicrobial polymyxin derivative compounds” (MONASH UNIVERSITY, priority 2015, dated 2022).
In brackets after ≈: the same amount, converted by molar mass. Where a SMILES comes first, the peptide text is derived from it. Bridges are numbered along the chain shown (N, C = ends). [ ]: non-standard residue; d: D form. The star is where a group is joined. X22 = Cn1c(C(=O)*)cc2ccccc21; X23 = O=C(c1cc2ccccc2[nH]1)*; X27 = O=C(c1sc2ccccc2c1Cl)*; Dab = NCC[C@H](N)C(=O)O; Dap = NC[C@H](N)C(=O)O

What was measured:
Format in all cases: cell-based
[1] = tested on: Pseudomonas aeruginosa FADDI-PA022; conditions: FADDI-PA022
Procedure, shortened: (§1)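 Susceptibility of polymyxin-susceptible Gram-negative strains, including multidrug-resistant clinical isolates PA022 and AB034, was tested by broth microdilution. Cation-adjusted Mueller-Hinton broth and the CLSI M100-S24 method were used.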

[2] = tested on: Enterobacter cloacae FADDI-EC006; conditions: FADDI-EC006
Procedure, shortened: as §1

[3] = tested on: Pseudomonas aeruginosa FADDI-PA038; conditions: FADDI-PA038
Procedure, shortened: as §1

[4] = tested on: Klebsiella pneumoniae FADDI-KP022; conditions: FADDI-KP022
Procedure, shortened: as §1

[5] = tested on: Acinetobacter baumannii ATCC 17978; conditions: ATCC 17978
Procedure, shortened: as §1

[6] = tested on: Pseudomonas aeruginosa ATCC 27853; conditions: ATCC 27853
Procedure, shortened: as §1

[7] = tested on: Enterobacter cloacae FADDI-EC003; conditions: FADDI-EC003
Procedure, shortened: as §1

[8] = tested on: Enterobacter cloacae FADDI-EC001; conditions: FADDI-EC001
Procedure, shortened: (§2)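 Values are MICs of the lipopeptide trifluoroacetic acid salts. Dilution series were set up in CAMHB as CLSI M100-S24 specifies.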

[9] = tested on: Acinetobacter baumannii FADDI-AB034; conditions: FADDI-AB034
Procedure, shortened: as §1

[10] = tested on: Pseudomonas aeruginosa FADDI-PA01; conditions: FADDI-
Procedure, shortened: as §1

[11] = tested on: Klebsiella pneumoniae FADDI-KP032; conditions: FADDI-KP032
Procedure, shortened: as §1

[12] = tested on: Klebsiella pneumoniae Kp BM1; conditions: Kp BM1
Procedure, shortened: as §2

[13] = tested on: Acinetobacter baumannii FADDI-AB030; assay: microbe, parasite or virus in culture; conditions: FADDI-AB030
Procedure, shortened: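 Lipopeptide TFA salts tested against the multidrug-resistant clinical isolate by CLSI (M100-S24) broth microdilution in cation-adjusted Mueller-Hinton broth, with polymyxin B sulphate as control; MIC read.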

Row | Compound | Minimum inhibitory concentration [1] [µg/mL] | Minimum inhibitory concentration [2] [µg/mL] | Minimum inhibitory concentration [3] [µg/mL] | Minimum inhibitory concentration [4] [µg/mL] | Minimum inhibitory concentration [5] [µg/mL] | Minimum inhibitory concentration [6] [µg/mL] | Minimum inhibitory concentration [7] [µg/mL] | Minimum inhibitory concentration [8] [µg/mL] | Minimum inhibitory concentration [9] [µg/mL] | Minimum inhibitory concentration [10] [µg/mL] | Minimum inhibitory concentration [11] [µg/mL] | Minimum inhibitory concentration [12] [µg/mL] | Minimum inhibitory concentration [13] [µg/mL]
1 | CC(C)C[C@H]1NC(=O)[C@H](CCN)NC(=O)[C@@H](NC(=O)[C@H](CN)NC(=O)[C@@H](NC(=O)[C@H](CCN)NC(=O)c2cc3ccccc3n2C)[C@@H](C)O)CCNC(=O)[C@H]([C@@H](C)O)NC(=O)[C@H](CCN)NC(=O)[C@H](CCN)NC(=O)[C@H](C)NC1=O [Compound 65] (X22-[Dab]T[Dap][Dab][Dab][dL]A[Dab][Dab]T; lactam 4-C) | 0.25 (≈ 0.221 µM) | 1 (≈ 0.885 µM) | 0.5 (≈ 0.442 µM) | 0.25 (≈ 0.221 µM) | 1 (≈ 0.885 µM) | 0.5 (≈ 0.442 µM) | 1 (≈ 0.885 µM) | 0.5 (≈ 0.442 µM) | 1 (≈ 0.885 µM) | 0.25 (≈ 0.221 µM) | 0.5 (≈ 0.442 µM) | 0.25 (≈ 0.221 µM) | 0.5 (≈ 0.442 µM)
2 | CC(C)C[C@H]1NC(=O)[C@H](CCN)NC(=O)[C@@H](NC(=O)[C@H](CN)NC(=O)[C@@H](NC(=O)[C@H](CCN)NC(=O)c2cc3ccccc3[nH]2)[C@@H](C)O)CCNC(=O)[C@H]([C@@H](C)O)NC(=O)[C@H](CCN)NC(=O)[C@H](CCN)NC(=O)[C@H]([C@@H](C)O)NC1=O [Compound 66] (X23-[Dab]T[Dap][Dab][Dab][dL]T[Dab][Dab]T; lactam 4-C) | 0.25 (≈ 0.218 µM) | 1 (≈ 0.872 µM) | 2 (≈ 1.74 µM) | 0.5 (≈ 0.436 µM) | 2 (≈ 1.74 µM) | 0.5 (≈ 0.436 µM) | 0.5 (≈ 0.436 µM) | 0.5 (≈ 0.436 µM) | 1 (≈ 0.872 µM) | 2 (≈ 1.74 µM) | 1 (≈ 0.872 µM) | 0.5 (≈ 0.436 µM) | 1 (≈ 0.872 µM)
3 | CC(C)C[C@H]1NC(=O)[C@H](CCN)NC(=O)[C@@H](NC(=O)[C@H](CN)NC(=O)[C@@H](NC(=O)[C@H](CCN)NC(=O)c2cc3ccccc3[nH]2)[C@@H](C)O)CCNC(=O)[C@H]([C@@H](C)O)NC(=O)[C@H](CCN)NC(=O)[C@H](CCN)NC(=O)[C@H](C)NC1=O [Compound 67] (X23-[Dab]T[Dap][Dab][Dab][dL]A[Dab][Dab]T; lactam 4-C) | 0.25 (≈ 0.224 µM) | 1 (≈ 0.896 µM) | 1 (≈ 0.896 µM) | 0.5 (≈ 0.448 µM) | 2 (≈ 1.79 µM) | 0.25 (≈ 0.224 µM) | 0.5 (≈ 0.448 µM) | 0.5 (≈ 0.448 µM) | 1 (≈ 0.896 µM) | 0.5 (≈ 0.448 µM) | 0.5 (≈ 0.448 µM) | 0.5 (≈ 0.448 µM) | 1 (≈ 0.896 µM)
4 | CC(C)C[C@H]1NC(=O)[C@H](CCN)NC(=O)[C@@H](NC(=O)[C@H](CN)NC(=O)[C@@H](NC(=O)[C@H](CCN)NC(=O)c2sc3ccccc3c2Cl)[C@@H](C)O)CCNC(=O)[C@H]([C@@H](C)O)NC(=O)[C@H](CCN)NC(=O)[C@H](CCN)NC(=O)[C@H]([C@@H](C)O)NC1=O [Compound 68] (X27-[Dab]T[Dap][Dab][Dab][dL]T[Dab][Dab]T; lactam 4-C) | 0.25 (≈ 0.209 µM) | 0.25 (≈ 0.209 µM) | 1 (≈ 0.835 µM) | <0.125 | 0.25 (≈ 0.209 µM) | 0.25 (≈ 0.209 µM) | <0.125 | <0.125 | <0.125 | 0.5 (≈ 0.417 µM) | 0.25 (≈ 0.209 µM) | 0.25 (≈ 0.209 µM) | <0.125
